One experiment concerns the target T1, Human PKMYT1 (Homo sapiens, UniProt Q99640).
T1 construct: Human PKMYT1 75-362 was cloned as a TEV cleavable 6xHis fusion; 6xHis (TEV cleavable) (cleaved yes); made in house; host or cells: bacterial cells
T1 sequence (Q99640 75-362): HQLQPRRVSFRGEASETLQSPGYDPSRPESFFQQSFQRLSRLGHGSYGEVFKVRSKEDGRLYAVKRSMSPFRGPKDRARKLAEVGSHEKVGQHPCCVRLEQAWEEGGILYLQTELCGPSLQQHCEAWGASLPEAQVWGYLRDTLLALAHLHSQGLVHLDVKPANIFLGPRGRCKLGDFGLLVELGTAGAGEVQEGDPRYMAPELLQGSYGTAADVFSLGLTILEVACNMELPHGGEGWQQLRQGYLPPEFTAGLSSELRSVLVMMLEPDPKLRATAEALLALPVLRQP
Description: PKMYT1 biochemical ADP-Glo enzymatic assay. The conditions noted are these: ADP-Glo; 15 nM PKMYT1 kinase domain, 500 µM ATP, 60 minutes at 26° C.; banded. An outline of the steps: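 Purified untagged human PKMYT1 75-362 at 15 nM final was tested in HEPES pH 7.5 with MgCl2, EGTA, Brij-35 and 1% DMSO. Intrinsic ATPase activity was measured with 500 uM ATP over 60 min at 26° C. ADP-Glo luminescence was read and IC50 fitted from 10-point, 3-fold dilution curves.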
On the technique in general: ADP-Glo first removes unused ATP, then detects ADP through luciferase.

For another experiment, the target named is T2, WEE1 (Homo sapiens, UniProt P30291).
T2 construct: purchased Thermo Fisher PR7373A
Nature of the experiment: Selectivity versus WEE1 assay (ADP-Glo enzymatic assay). In kind it is biochemical. The conditions noted are these: banded; for IC50: ADP-Glo, 15 nM WEE1, 60 minutes at 26° C.; for PKMYT1 vs. WEE1 selectivity: fold difference in selectivity for PKMYT1 over WEE1, ">N" = at least in this band but could be higher. The method, boiled down:
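WEE1 at 15 nM final in 50 mM HEPES pH 7.5, 10 mM MgCl2, 1 mM EGTA, 0.01% Brij-35, 1% DMSO; reaction started with 30 µM ATP, 60 min at 26 °C. ADP-Glo luminescence; IC50 from dose-response curves, replicates within 3-fold and r2 >0.9.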

T2 sequence (P30291 whole entry): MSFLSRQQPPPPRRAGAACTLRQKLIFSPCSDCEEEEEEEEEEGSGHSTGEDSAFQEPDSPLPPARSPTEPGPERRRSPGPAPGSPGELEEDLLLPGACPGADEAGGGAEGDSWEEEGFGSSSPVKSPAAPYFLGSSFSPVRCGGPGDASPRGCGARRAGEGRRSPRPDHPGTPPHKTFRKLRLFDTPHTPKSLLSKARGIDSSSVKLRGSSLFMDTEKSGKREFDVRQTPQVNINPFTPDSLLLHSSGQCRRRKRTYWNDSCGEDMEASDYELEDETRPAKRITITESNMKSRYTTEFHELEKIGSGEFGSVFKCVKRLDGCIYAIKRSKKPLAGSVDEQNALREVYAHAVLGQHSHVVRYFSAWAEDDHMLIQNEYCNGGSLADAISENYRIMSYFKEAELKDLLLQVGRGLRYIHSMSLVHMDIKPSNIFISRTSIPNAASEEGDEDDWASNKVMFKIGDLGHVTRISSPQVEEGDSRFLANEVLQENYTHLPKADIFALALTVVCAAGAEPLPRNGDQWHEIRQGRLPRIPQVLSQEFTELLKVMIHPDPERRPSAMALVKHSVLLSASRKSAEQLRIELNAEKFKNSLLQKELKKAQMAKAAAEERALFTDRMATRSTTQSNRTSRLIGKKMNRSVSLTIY

`CCC(=O)N1CC[C@@H](n2ccc(Nc3ncc(C(=O)Nc4c(C)ccc(O)c4C)s3)n2)C1` [BAA-085]: at Human PKMYT1, the IC50 was under 0.05 µM. At WEE1, the IC50 is over 11 µM and the “PKMYT1 vs. WEE1 selectivity” value is given as “>Y (1000-5000 fold)”.
The matching figures for `Cc1ccc(O)c(C)c1NC(=O)c1cnc(Nc2ccn([C@@H]3CCN(C(=O)C(C)C)C3)n2)s1` [BAA-086]: 0.05 to 1 µM, over 11 µM and “>Y (1000-5000 fold)”.
Turning to `Cc1ccc(O)c(C)c1NC(=O)c1cnc(Nc2ccn([C@@H]3CCN(C(=O)c4ccccc4)C3)n2)s1` [BAA-087], the IC50 on Human PKMYT1 was 0.05 to 1 µM; on WEE1, over 11 µM.
`Cc1ccc(O)c(C)c1NC(=O)c1cnc(Nc2ccn([C@@H]3CCN(C(=O)COc4ccccc4)C3)n2)s1` [BAA-088] gave a concentration for half-maximal inhibition (IC50) against Human PKMYT1 of 0.05 to 1 µM. On WEE1, the IC50 is over 11 µM and the “PKMYT1 vs. WEE1 selectivity” value is recorded as “>X (100-<1000 fold)”.
The corresponding values for `COc1ccc(CC(=O)N2CC[C@@H](n3ccc(Nc4ncc(C(=O)Nc5c(C)ccc(O)c5C)s4)n3)C2)cc1` [BAA-089] are 0.05 to 1 µM, over 11 µM and “>X (100-<1000 fold)”.
`Cc1ccc(O)c(C)c1NC(=O)c1cnc(Nc2ccn([C@@H]3CCN(C(=O)CC4CCOCC4)C3)n2)s1` [BAA-090] showed an IC50 against Human PKMYT1 of 0.05 to 1 µM. Besides, on WEE1, the IC50 is over 11 µM and the “PKMYT1 vs. WEE1 selectivity” value was “>X (100-<1000 fold)”.
For `COC(=O)CCC(=O)N1CC[C@@H](n2ccc(Nc3ncc(C(=O)Nc4c(C)ccc(O)c4C)s3)n2)C1` [BAA-091], on Human PKMYT1, the half-maximal inhibitory concentration (IC50) fell in the range of 0.05 to 1 µM. Moreover, at WEE1, the IC50 was over 11 µM and the “PKMYT1 vs. WEE1 selectivity” value is reported as “>X (100-<1000 fold)”.
For the compound `COCC(=O)N1CC[C@@H](n2ccc(Nc3ncc(C(=O)Nc4c(C)ccc(O)c4C)s3)n2)C1` [BAA-092], the IC50 on Human PKMYT1 was in the range of 0.05 to 1 µM. In addition, on WEE1, the IC50 is over 11 µM and the “PKMYT1 vs. WEE1 selectivity” value was “>X (100-<1000 fold)”.
On Human PKMYT1, `Cc1ccc(O)c(C)c1NC(=O)c1cnc(Nc2ccn([C@@H]3CCN(C(=O)Cc4ccc(F)cc4)C3)n2)s1` [BAA-093] showed an IC50 of 0.05 to 1 µM. In addition, at WEE1, the IC50 was over 11 µM and the “PKMYT1 vs. WEE1 selectivity” value is on record as “>X (100-<1000 fold)”.
The corresponding values for `Cc1ccc(O)c(C)c1NC(=O)c1cnc(Nc2ccn([C@@H]3CCN(C(=O)C(C)(C)c4ccccc4)C3)n2)s1` [BAA-094] are 0.05 to 1 µM, over 11 µM and “>X (100-<1000 fold)”.
The matching figures for `Cc1ccc(O)c(C)c1NC(=O)c1cnc(Nc2ccn([C@@H]3CCN(C(=O)Cc4ccccc4F)C3)n2)s1` [BAA-095]: 0.05 to 1 µM, over 11 µM and “>Y (1000-5000 fold)”.
The matching figures for `Cc1ccc(O)c(C)c1NC(=O)c1cnc(Nc2ccn([C@@H]3CCN(C(=O)CC(C)C)C3)n2)s1` [BAA-096, N-(3-hydroxy-2,6-dimethyl-phenyl)-2-[[1-[(3R)-1-(3-methylbutanoyl)pyrrolidin-3-yl]pyrazol-3-yl]amino]thiazole-5-carboxamide]: 0.05 to 1 µM, over 11 µM and “>Y (1000-5000 fold)”.
With `Cc1ccc(O)c(C)c1NC(=O)c1cnc(Nc2ccn([C@@H]3CCN(C(=O)CC4CCCCC4)C3)n2)s1` [BAA-097], the IC50 on Human PKMYT1 is 0.05 to 1 µM; at WEE1, over 11 µM. The “PKMYT1 vs. WEE1 selectivity” value at WEE1 is on record as “>X (100-<1000 fold)”.
For `Cc1ccc(O)c(C)c1NC(=O)c1cnc(Nc2ccn([C@@H]3CCN(C(=O)Cc4cccs4)C3)n2)s1` [BAA-098], at Human PKMYT1, the IC50 fell in the range of 0.05 to 1 µM. On WEE1, the IC50 was over 11 µM and the “PKMYT1 vs. WEE1 selectivity” value is recorded as “>X (100-<1000 fold)”.
The corresponding values for `Cc1ccc(O)c(C)c1NC(=O)c1cnc(Nc2ccn([C@@H]3CCN(C(=O)C(F)(F)c4ccccc4)C3)n2)s1` [BAA-099, 2-[[1-[(3R)-1-(2,2-Difluoro-2-phenyl-acetyl)pyrrolidin-3-yl]pyrazol-3-yl]amino]-N-(3-hydroxy-2,6-dimethyl-phenyl)thiazole-5-carboxamide] are 0.05 to 1 µM, over 11 µM and “>X (100-<1000 fold)”.
The matching figures for `COc1ccc(CC(=O)N2CCC(CNc3ncc(C(=O)Nc4c(C)ccc(O)c4C)s3)CC2)nc1` [BAA-100, N-(3-Hydroxy-2,6-dimethyl-phenyl)-2-[[1-[2-(5-methoxy-2-pyridyl)acetyl]-4-piperidyl]methylamino]thiazole-5-carboxamide]: 0.05 to 1 µM, over 11 µM and “>X (100-<1000 fold)”.
The corresponding values for `Cc1ccc(O)c(C)c1NC(=O)c1cnc(Nc2ccn(CCCN3CCOCC3)n2)s1` [BAA-101] are 0.05 to 1 µM, over 11 µM and “>X (100-<1000 fold)”.
On to `Cc1ccc(O)c(C)c1NC(=O)c1cnc(Nc2ccn([C@@H]3CCN(C(=O)Cc4cccnc4)C3)n2)s1` [BAA-102], for which, on Human PKMYT1, the concentration for half-maximal inhibition (IC50) is 0.05 to 1 µM. Further, on WEE1, the IC50 was over 11 µM and the “PKMYT1 vs. WEE1 selectivity” value was “>Y (1000-5000 fold)”.
The corresponding values for `Cc1ccc(O)c(C)c1NC(=O)c1cnc(Nc2ccn([C@@H]3CCN(C(=O)Cn4cccn4)C3)n2)s1` [BAA-103, N-(3-hydroxy-2,6-dimethyl-phenyl)-2-[1-[(3R)-1-(2-pyrazol-1-ylacetyl)pyrrolidin-3-yl]pyrazol-3-yllamino]thiazole-5-carboxamide] are 0.05 to 1 µM, over 11 µM and “>X (100-<1000 fold)”.
The matching figures for `Cc1ccc(O)c(C)c1NC(=O)c1cnc(Nc2ccn([C@@H]3CCN(C(=O)Cc4ccncc4)C3)n2)s1` [BAA-104, N-(3-hydroxy-2,6-dimethyl-phenyl)-2-[1-[(3R)-1-[2-(4-pyridyl)acetyl]pyrrolidin-3-yl]pyrazol-3-ylamino]thiazole-5-carboxamide]: 0.05 to 1 µM, over 11 µM and “>X (100-<1000 fold)”.
The corresponding values for `Cc1ccc(O)c(C)c1NC(=O)c1cnc(Nc2ccn([C@@H]3CCN(C(=O)Cc4ccc(N(C)C)cc4)C3)n2)s1` [BAA-105, 2-[[1-[(3R)-1-[2-[4-(dimethylamino)phenyl]acetyl]pyrrolidin-3-yl]pyrazol-3-yl]amino]-N-(3-hydroxy-2,6-dimethyl-phenyl) thiazole-5-carboxamide] are 0.05 to 1 µM, over 11 µM and “>Y (1000-5000 fold)”.
Take `Cc1ccc(O)c(C)c1NC(=O)c1cnc(Nc2ccn([C@@H]3CCN(C(=O)Cc4ccc(N)cc4)C3)n2)s1` [BAA-106, 2-[[1-[(3R)-1-[2-(4-Aminophenyl)acetyl]pyrrolidin-3-yl]pyrazol-3-yl]amino]-N-(3-hydroxy-2,6-dimethyl-phenyl)thiazole-5-carboxamide]: the IC50 against Human PKMYT1 was under 0.05 µM. Besides, on WEE1, the IC50 was over 11 µM and the “PKMYT1 vs. WEE1 selectivity” value is listed as “>Y (1000-5000 fold)”.
The matching figures for `Cc1ccc(O)c(C)c1NC(=O)c1cnc(Nc2ccn([C@@H]3CCN(C(=O)CC4CCNCC4)C3)n2)s1` [BAA-107, N-(3-Hydroxy-2,6-dimethyl-phenyl)-2-[[1-[(3R)-1-[2-(4-piperidyl)acetyl]pyrrolidin-3-yl]pyrazol-3-yl]amino]thiazole-5-carboxamide]: 0.05 to 1 µM, over 11 µM and “>X (100-<1000 fold)”.
With `Cc1ccc(O)c(C)c1NC(=O)c1cnc(Nc2ccn([C@@H]3CCN(C(=O)NCc4ccccc4)C3)n2)s1` [BAA-108, 2-[[1-[(3R)-1-(Benzylcarbamoyl)pyrrolidin-3-yl]pyrazol-3-yl]amino]-N-(3-hydroxy-2,6-dimethyl-phenyl)thiazole-5-carboxamide], at Human PKMYT1, the IC50 is under 0.05 µM. For the same compound, at WEE1, the IC50 was over 11 µM and the “PKMYT1 vs. WEE1 selectivity” value was “>Y (1000-5000 fold)”.
The corresponding values for `CCNC(=O)N1CC[C@@H](n2ccc(Nc3ncc(C(=O)Nc4c(C)ccc(O)c4C)s3)n2)C1` [BAA-109, 2-[[1-[(3R)-1-(Ethylcarbamoyl)pyrrolidin-3-yl]pyrazol-3-yl]amino]-N-(3-hydroxy-2,6-dimethyl-phenyl)thiazole-5-carboxamide] are 0.05 to 1 µM, over 11 µM and “>X (100-<1000 fold)”.
The matching figures for `Cc1ccc(O)c(C)c1NC(=O)c1cnc(Nc2ccn([C@@H]3CCN(C(=O)NC4CC4)C3)n2)s1` [BAA-110, 2-[[1-[(3R)-1-(Cyclopropylcarbamoyl)pyrrolidin-3-yl]pyrazol-3-yl]amino]-N-(3-hydroxy-2.6-dimethyl-phenyl)thiazole-5-carboxamide]: 0.05 to 1 µM, over 11 µM and “>X (100-<1000 fold)”.

One may read the IC50 as the point on the concentration scale where inhibition reaches its midpoint. A lower IC50 goes with greater potency.

(Values after patent publication US20260297042A1, “BIARYLAMIDE DERIVATIVES AND THEIR USE AS PKMYT1 INHIBITORS” (CANCER RESEARCH TECHNOLOGY LIMITED, priority 2023, published 2026).)
